Where a SMILES comes first, the peptide text is derived from it. Where no end group is shown, it is not given here. [ ]: non-standard residue; d: D form.
Assays:
Type in all cases: cell-based
FPRL1 = molecular target: T1, FPRL1 (Homo sapiens, UniProt P25090); assay: [Ca2+]i increase in FPRL1-expressing RBL-2H3 cells (fura-2); conditions: for EC50: fura-2 loaded, read-out: EC50 (nM), intracellular calcium increase
T1 construct: expressed in transfected cells; host or cells: RBL-2H3 (rat basophilic leukemia) cells, G418-selected
T1 sequence (P25090 1-351): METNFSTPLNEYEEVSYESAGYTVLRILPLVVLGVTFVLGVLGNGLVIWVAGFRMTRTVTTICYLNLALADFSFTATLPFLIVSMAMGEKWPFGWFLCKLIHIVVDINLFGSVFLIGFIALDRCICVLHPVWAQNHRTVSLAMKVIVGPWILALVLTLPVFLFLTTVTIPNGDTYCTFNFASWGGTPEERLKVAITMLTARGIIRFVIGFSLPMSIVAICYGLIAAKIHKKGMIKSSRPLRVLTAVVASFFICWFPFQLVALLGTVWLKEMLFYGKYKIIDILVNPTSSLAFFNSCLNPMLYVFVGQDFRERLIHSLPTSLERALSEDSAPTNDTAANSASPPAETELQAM
Method: […] The level of [Ca^2+]i was determined fluorometrically by Grynkiewicz's method using fura-2/AM (15). Briefly, prepared cells were incubated with 3 μM fura-2/AM at 37° C. for 50 min in a fresh serum-free RPMI 1640 medium under continuous stirring. 2×10^6 cells were aliquoted for each assay in Ca^2+-free Locke's solution (154 mM NaCl, 5.6 mM KCl, 1.2 mM MgCl2, 5 mM HEPES, pH 7.3, 10 mM glucose, and 0.2 mM EGTA). Fluorescence changes at the dual excitation wavelengths of 340 nm and 380 nm and the emission wavelength of 500 nm were measured, and the calibrated fluorescence ratio was translated into [Ca^2+]i. The peak level of the increased [Ca^2+]i was monitored.
[…] The level of [Ca^2+]i was determined by the same procedures as above. The peak level of the increased [Ca^2+]i was monitored.

human neutrophils = assay: Superoxide generation in human neutrophils (cytochrome c reduction); conditions: for O^2− (nmol/10^6 cells), superoxide generation: cytochrome c reduction; for superoxide generation: 10 μM concentration; for superoxide generating activity: 100 nM of peptides
Method: Peripheral blood leukocyte concentrates were donated by the Ulsan Red Cross Blood Center (Ulsan, Korea). Human neutrophils were isolated according to the standard procedures of dextran sedimentation, hypotonic lysis of erythrocytes, and a lymphocyte separation medium gradient as described above (9). The isolated human neutrophils were then used promptly.
The activity of the peptides, WKYMVm, peptides of SEQ ID NOs: 1 to 24, and wkymvm on superoxide generation in human neutrophils was measured. Superoxide anion generation was quantified by measuring reduction of cytochrome c using a microtiter 96-well plate ELISA reader (Bio-Tekinstruments, EL312e, Winooski, Vt.) as described (14). The human neutrophils (1×10^6 cells/100 μl of RPMI 1640 medium per well of a 96-well plate) were preincubated with 50 μM cytochrome c at 37° C. for 1 min and then incubated with the indicated concentrations of peptides. The superoxide generation was measured as a change in light absorption at 550 nm over 5 minutes at 1 min intervals. From at least four independent experiments, peptides with active amino acids at each position were chosen.

FPR = molecular target: T2, FPR (Homo sapiens, UniProt P21462); assay: [Ca2+]i increase in FPR-expressing RBL-2H3 cells (fura-2); conditions: for EC50 (nM), intracellular calcium increase / EC50: fura-2 loaded; for EC50: read-out: EC50 (nM), intracellular calcium increase
T2 construct: expressed in transfected cells; host or cells: RBL-2H3 (rat basophilic leukemia) cells, G418-selected
T2 sequence (P21462 1-350): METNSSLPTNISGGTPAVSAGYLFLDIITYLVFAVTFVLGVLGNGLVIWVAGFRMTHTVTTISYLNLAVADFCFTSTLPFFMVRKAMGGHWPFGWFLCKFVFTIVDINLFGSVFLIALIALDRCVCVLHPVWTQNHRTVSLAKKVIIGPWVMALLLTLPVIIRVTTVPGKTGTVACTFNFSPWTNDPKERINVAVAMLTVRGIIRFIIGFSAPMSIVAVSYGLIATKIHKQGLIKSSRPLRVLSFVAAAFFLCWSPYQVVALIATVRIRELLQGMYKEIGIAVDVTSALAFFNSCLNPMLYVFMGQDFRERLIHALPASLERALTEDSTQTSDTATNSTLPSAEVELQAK
Method: FPR-expressing RBL-2H3 cells were stimulated with 10 μM of each peptide, and [Ca^2+]i was determined. The level of [Ca^2+]i was determined fluorometrically by Grynkiewicz's method using fura-2/AM (15). Briefly, prepared cells were incubated with 3 μM fura-2/AM at 37° C. for 50 min in a fresh serum-free RPMI 1640 medium under continuous stirring. 2×10^6 cells were aliquoted for each assay in Ca^2+-free Locke's solution (154 mM NaCl, 5.6 mM KCl, 1.2 mM MgCl2, 5 mM HEPES, pH 7.3, 10 mM glucose, and 0.2 mM EGTA). Fluorescence changes at the dual excitation wavelengths of 340 nm and 380 nm and the emission wavelength of 500 nm were measured, and the calibrated fluorescence ratio was translated into [Ca^2+]i. The peak level of the increased [Ca^2+]i was monitored.

Molecule	O^2− (nmol/10^6 cells), superoxide generation (human neutrophils; peptide 100 nM)	O^2− (nmol/10^6 cells), superoxide generation (human neutrophils; peptide 10 μM)	EC50 (nM), intracellular calcium increase (FPR)	also measured
CSCC[C@H](NC(=O)[C@H](Cc1ccc(O)cc1)NC(=O)[C@H](CCCCN)NC(=O)[C@@H](N)Cc1c[nH]c2ccccc12)C(=O)N[C@@H](Cc1ccc(O)cc1)C(=O)N[C@H](CCSC)C(N)=O [WKYMYm-NH2, Trp-Lys-Tyr-Met-Tyr-D-Met-NH2] (H-WKYMY[dM]-NH2; N-terminus assumed)	25.8 ± 3.89 nmol/10^6 cells	42.9 ± 3.34 nmol/10^6 cells		[Ca^2+]i increasing activity (FPRL1): higher affinity to FPRL1
WKYMVG-NH2 [WKYMVG-NH2, Trp-Lys-Tyr-Met-Val-Gly-NH2]	4.4 ± 0.54 nmol/10^6 cells	27.3 ± 1.40 nmol/10^6 cells	inactive	
WKYMV-NH2 [WKYMV-NH2, Trp-Lys-Tyr-Met-Val-NH2]	9.2 ± 0.55 nmol/10^6 cells	25.6 ± 2.20 nmol/10^6 cells	inactive	
CSCC[C@H](NC(=O)[C@H](Cc1ccc(O)cc1)NC(=O)[C@H](CCCCN)NC(=O)[C@@H](N)Cc1c[nH]c2ccccc12)C(=O)NCC(=O)N[C@H](CCSC)C(N)=O [WKYMGm-NH2, Trp-Lys-Tyr-Met-Gly-D-Met-NH2] (H-WKYMG[dM]-NH2; N-terminus assumed)	1.1 ± 0.05 nmol/10^6 cells	27.3 ± 2.61 nmol/10^6 cells	inactive	[Ca^2+]i increasing activity (FPRL1): showed [Ca^2+]i-increasing activity in FPRL1 cells, with a little lower affinity to FPRL1; [Ca^2+]i increasing activity (FPR): did not effect a [Ca^2+]i increase until 20 μM treatment
CSCC[C@H](NC(=O)[C@H](Cc1ccc(O)cc1)NC(=O)[C@H](CC(=O)O)NC(=O)[C@@H](N)Cc1c[nH]c2ccccc12)C(=O)N[C@H](C(=O)N[C@H](CCSC)C(N)=O)C(C)C [WDYMVm-NH2, Trp-Asp-Tyr-Met-Val-D-Met-NH2] (H-WDYMV[dM]-NH2; N-terminus assumed)	25.8 ± 6.56 nmol/10^6 cells	37.3 ± 5.66 nmol/10^6 cells		
CSCC[C@H](NC(=O)[C@H](CCC(=O)O)NC(=O)[C@H](CCCCN)NC(=O)[C@@H](N)Cc1c[nH]c2ccccc12)C(=O)N[C@H](C(=O)N[C@H](CCSC)C(N)=O)C(C)C [WKEMVm-NH2, Trp-Lys-Glu-Met-Val-D-Met-NH2] (H-WKEMV[dM]-NH2; N-terminus assumed)	4.1 ± 0.21 nmol/10^6 cells	39.2 ± 4.71 nmol/10^6 cells		EC50 (FPR): 1330 ± 88.8 nM
Trp-Lys-Tyr-Met-(Phe/Trp)-D-Met-NH2 [WKYM(F/W)m-NH2]	6.1 ± 0.77 nmol/10^6 cells	45.6 ± 7.76 nmol/10^6 cells		[Ca^2+]i increasing activity (FPRL1): higher affinity to FPRL1
WKYMVW-NH2 [WKYMVW-NH2, Trp-Lys-Tyr-Met-Val-Trp-NH2]	11.5 ± 1.62 nmol/10^6 cells	56.8 ± 4.60 nmol/10^6 cells	inactive	superoxide generation (human neutrophils): more potent activity than WKYMVm
CSCC[C@H](NC(=O)[C@H](Cc1ccc(O)cc1)NC(=O)[C@@H](N)CCCCN)C(=O)N[C@H](C(=O)N[C@H](CCSC)C(N)=O)C(C)C [KYMVm-NH2, Lys-Tyr-Met-Val-D-Met-NH2]	36.0 ± 3.56 nmol/10^6 cells	49.2 ± 5.82 nmol/10^6 cells		superoxide generating activity (human neutrophils): stimulated superoxide generation
CSCC[C@H](N)C(=O)N[C@H](C(=O)N[C@H](CCSC)C(N)=O)C(C)C [MVm-NH2, Met-Val-D-Met-NH2] (H-Met-Val-[dM]-NH2)			inactive	EC50 (FPRL1): > 30000 nM
CSCC[C@H](NC(=O)[C@H](Cc1ccc(O)cc1)NC(=O)[C@@H](N)CCCCN)C(=O)N[C@H](C(N)=O)C(C)C [KYMV-NH2, Lys-Tyr-Met-Val-NH2] (H-KYMV-NH2)			inactive	EC50 (FPRL1): > 30000 nM
CSCC[C@H](NC(=O)[C@H](Cc1c[nH]cn1)NC(=O)[C@H](CCCCN)NC(=O)[C@@H](N)Cc1c[nH]c2ccccc12)C(=O)N[C@H](C(=O)N[C@H](CCSC)C(N)=O)C(C)C [WKHMVm-NH2, Trp-Lys-His-Met-Val-D-Met-NH2] (H-WKHMV[dM]-NH2; N-terminus assumed)	29.5 ± 7.71 nmol/10^6 cells	39.3 ± 4.10 nmol/10^6 cells		
CSCC[C@H](NC(=O)[C@H](Cc1ccc(O)cc1)NC(=O)[C@H](CCC(=O)O)NC(=O)[C@@H](N)Cc1c[nH]c2ccccc12)C(=O)N[C@H](C(=O)N[C@H](CCSC)C(N)=O)C(C)C [WEYMVm-NH2, Trp-Glu-Tyr-Met-Val-D-Met-NH2] (H-WEYMV[dM]-NH2; N-terminus assumed)	52.9 ± 12.78 nmol/10^6 cells	35.3 ± 2.88 nmol/10^6 cells		superoxide generating activity (human neutrophils): stimulated superoxide generation
CSCC[C@H](NC(=O)[C@@H](N)Cc1ccc(O)cc1)C(=O)N[C@H](C(=O)N[C@H](CCSC)C(N)=O)C(C)C [YMVm-NH2, Tyr-Met-Val-D-Met-NH2] (H-YMV[dM]-NH2; N-terminus assumed)	30.2 ± 2.74 nmol/10^6 cells	41.8 ± 3.46 nmol/10^6 cells		
WKYMVV-NH2 [WKYMVV-NH2, Trp-Lys-Tyr-Met-Val-Val-NH2]	5.0 ± 0.21 nmol/10^6 cells	36.3 ± 2.29 nmol/10^6 cells	inactive	
CSCC[C@H](NC(=O)[C@H](Cc1c[nH]c2ccccc12)NC(=O)[C@H](CCCCN)NC(=O)[C@@H](N)Cc1c[nH]c2ccccc12)C(=O)N[C@H](C(=O)N[C@H](CCSC)C(N)=O)C(C)C [WKWMVm-NH2, Trp-Lys-Trp-Met-Val-D-Met-NH2] (H-WKWMV[dM]-NH2; N-terminus assumed)	11.5 ± 0.97 nmol/10^6 cells	65.0 ± 12.10 nmol/10^6 cells		[Ca^2+]i increasing activity (FPRL1): higher affinity to FPRL1; superoxide generation (human neutrophils): more potent activity than WKYMVm; [Ca^2+]i increasing activity (FPR): more improved affinity for the FPR against the peptide WKYMVm
CSCC[C@H](NC(=O)[C@H](CC(=O)O)NC(=O)[C@H](CCCCN)NC(=O)[C@@H](N)Cc1c[nH]c2ccccc12)C(=O)N[C@H](C(=O)N[C@H](CCSC)C(N)=O)C(C)C [WKDMVm-NH2, Trp-Lys-Asp-Met-Val-D-Met-NH2] (H-WKDMV[dM]-NH2; N-terminus assumed)	16.3 ± 1.67 nmol/10^6 cells	37.3 ± 2.78 nmol/10^6 cells		EC50 (FPR): 1330 ± 207 nM
CSCC[C@H](NC(=O)[C@H](Cc1ccc(O)cc1)NC(=O)[C@H](Cc1c[nH]cn1)NC(=O)[C@@H](N)Cc1c[nH]c2ccccc12)C(=O)N[C@H](C(=O)N[C@H](CCSC)C(N)=O)C(C)C [WHYMVm-NH2, Trp-His-Tyr-Met-Val-D-Met-NH2] (H-WHYMV[dM]-NH2; N-terminus assumed)	20.7 ± 7.85 nmol/10^6 cells	20.7 ± 7.85 nmol/10^6 cells		[Ca^2+]i increasing activity (FPR): more improved affinity for the FPR against the peptide WKYMVm

From patent US7517857B2, “Immune-modulating peptide” (POSCO, priority 2002, dated 2009)
